The values below are quoted from earlier work in patent US8759282B2, “Water-soluble films comprising low-viscosity alginates” (Uppsalagruppen Medical AB, priority 2005, dated 2014).

The term pKa denotes the negative logarithm of the acid dissociation constant.

Assay in data set [1]: not given
The source holds these as a separate data set.

Like-named read-outs stand apart in the source and are kept apart here.

`CN1CCC[C@H]1c1cccnc1` [Substance 4, (S)-3-(1-Methyl-2-pyrrolidinyl)pyridine]: the “Solubility in water” value is “liquid miscible with water”. Also, the pKa in data set [1] is 8.5.
For the molecule `CC(=O)Oc1ccccc1C(=O)O` [Substance 2, 2-Acetoxibensoesyra], the Solubility in water is reported as 1 g/100 g of water.
Turning to `CC(C)Cc1ccc(C(C)C(=O)O)cc1` (stereo not drawn) [Substance 3, p-Isobutylhydratropic acid], the “Solubility in water” value is “slightly soluble in water”. Further, for the setting “listed as ibuprofen”, the “Solubility in water” value is reported as “only slightly soluble in water”.
Take `CC(=O)Nc1ccc(O)cc1` [Substance 1, N-Acetyl-p-aminophenol]: the “Solubility in water” value is on record as “only slightly soluble in water”.
